Data taken from PMC6391970, “Design, Synthesis and Characterization of Covalent KDM5 Inhibitors” (Angewandte Chemie (International Ed. in English), 2018).
Marks after values point to notes of the source that are not given here.

Columns and labels:
[1] = test system: KDM5B; details: previously reported value, cited from earlier work
[2] = biological target: KDM5B (NanoLuc-KDM5B) (Homo sapiens, UniProt Q9UGL1); assay: NanoBRET cellular target engagement assay in HEK293 cells
[3] = test system: MDCK cells; details: Previously reported values in MDCK cells, A to B; cited from earlier work
[4] = biological target: T1, KDM5B (Homo sapiens, UniProt Q9UGL1, A373G/DEL102-140/DEL143-371/Q372G); assay: KDM5B 2-OG competition assay (AlphaScreen); format: biochemical; details: for IC50: AlphaScreen in vitro activity in KDM5B
T1 construct: A KDM5B construct encoding regions Phe26-Ile770 was amplified from an OriGene cDNA clone; 6x-histidine tag (TEV-cleavable) (N, cleaved yes); made in house; host or cells: Sf9 insect cells (baculovirus)
T1 sequence (Q9UGL1 with tags, fused parts or gaps DEL102-140/DEL143-371/Q372G/A373G): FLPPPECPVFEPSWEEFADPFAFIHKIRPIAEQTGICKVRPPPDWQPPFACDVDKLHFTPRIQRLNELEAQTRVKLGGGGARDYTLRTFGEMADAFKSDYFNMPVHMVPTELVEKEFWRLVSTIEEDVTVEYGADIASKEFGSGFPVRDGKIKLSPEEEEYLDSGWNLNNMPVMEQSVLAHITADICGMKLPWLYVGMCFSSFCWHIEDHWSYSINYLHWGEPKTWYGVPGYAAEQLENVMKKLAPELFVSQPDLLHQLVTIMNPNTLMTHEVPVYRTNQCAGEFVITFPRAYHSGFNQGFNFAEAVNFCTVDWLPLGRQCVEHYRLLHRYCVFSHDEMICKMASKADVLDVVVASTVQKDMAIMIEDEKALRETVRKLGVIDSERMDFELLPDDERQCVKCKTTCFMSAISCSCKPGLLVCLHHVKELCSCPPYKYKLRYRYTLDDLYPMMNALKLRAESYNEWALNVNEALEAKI
Description: (§1) KDM alpha screen selectivity
(§2) Inhibition of histone demethylases was assessed using the histone demethylase AlphaScreen assay (Amplified Luminescence Proximity Homogenous Assay) as previously reported.[4] The basis of this assay for lysine demethylases have been widely described.[5] In brief, the assay was performed in 384-well plate format using white proxiplates (PerkinElmer), and transfer of titrations of compounds (100 nl) was performed using an ECHO 550 acoustic dispenser […]
(§3) Tween- 20) containing the appropriate demethylase enzyme (see Supplementary table 1 for final concentrations) was transferred to each well of a 384-well proxiplate with a Multidrop™ Combi Reagent Dispenser, and the enzymes allowed to pre-incubate for 120 minutes with compound (final concentration of DMSO was 1%). After that time, the enzyme reaction was initiated by addition of 5 µl of a substrate mix consisting of Ketoglutarate (2-OG), Ferrous Ammonium Sulphate (FAS), L-Ascorbic Acid (LAA) and biotinylated peptide substrate (see Supporting table X for final assay concentrations) and the reaction incubated for the indicated time at room temperature. Reaction was stopped by the addition of 5 μl of assay buffer containing EDTA (7.5 mM) and NaCl (400 mM). Streptavidin Donor beads (0.08 mg/ml) and Protein-A conjugated acceptor beads (0.08 mg/ml) (AlphaScreen General IgG detection kit was from Perkin Elmer) were pre-incubated for 1 hour with an antibody to the product methyl mark (Supplementary Table 1) and the presence of biotin-H3-product was detected by addition of 5 µl of the pre-incubated AlphaScreen beads (final concentrations of 0.02 mg/ml with respect to acceptor and donor beads). Detection was allowed to proceed for 2 hour at room temperature and the assay plates read in a BMG Labtech Pherastar FS plate reader (excitation, 680 nm; emission, 570 […]
IC50(t) = Ki (1 + K ) . ( η . k .t − 1) (1)
KDM5B 2-OG competition assay
2-OG competition assay were performed as described for the general KDM5B AlphaScreen method above, varying the 2-OG concentrations from a range of 1mM to 0.5 μM. Data were normalized to the no enzyme control and the IC50 determined from the nonlinear regression curve fit using GraphPad Prism 7.

[5] = biological target: T1, KDM5B; assay: Covalent binding by MS (RapidFire intact mass, peptide mapping), KDM5B
[6] = Caco-2 permeability; format: in vitro ADME; details: human, Caco-2, Caco‐2 cells, A to B
[7] = biological target: T2, KDM5B (Homo sapiens, UniProt Q9UGL1); assay: Timecourse KDM5B AlphaScreen inhibition and kinact/Ki calculation; format: biochemical
T2 sequence (Q9UGL1 26-101 limits assumed): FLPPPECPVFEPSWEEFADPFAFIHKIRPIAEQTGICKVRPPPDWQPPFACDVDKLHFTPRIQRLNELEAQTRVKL
T2 sequence (Q9UGL1 374-770 limits assumed): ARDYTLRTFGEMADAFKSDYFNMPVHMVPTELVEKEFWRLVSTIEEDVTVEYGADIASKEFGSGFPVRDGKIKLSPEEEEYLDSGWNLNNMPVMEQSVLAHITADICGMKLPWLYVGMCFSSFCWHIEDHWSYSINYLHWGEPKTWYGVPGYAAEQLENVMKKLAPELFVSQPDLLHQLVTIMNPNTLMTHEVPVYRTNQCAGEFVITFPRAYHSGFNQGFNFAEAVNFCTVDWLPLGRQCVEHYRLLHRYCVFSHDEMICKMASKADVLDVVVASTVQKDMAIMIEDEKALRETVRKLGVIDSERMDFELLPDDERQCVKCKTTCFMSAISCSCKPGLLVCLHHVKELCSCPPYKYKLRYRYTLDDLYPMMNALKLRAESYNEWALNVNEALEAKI
Description: These parameters were calculated by using an established method to derive K i and k inact directly from time‐dependant IC50 values (Table S1). […]
as §1, §2
as §3, with “570 nm). Data were normalized to the no enzyme control and the IC50 determined from the nonlinear regression curve fit” for “570”
Timecourse KDM5B inhibition and Kinact/Ki calculations
The timecourse alphascreen assay was performed using the conditions described in the AlphaScreen section for KDM5B but with different pre-incubation times (from 0 to 120 min) for the enzyme with compound. Data were normalized to the no enzyme control and the IC50 for each timepoint was determined from the nonlinear regression curve fit using GraphPad Prism 7. The Ki and kinact were calculated through a least squares fit of the obtained IC50 at the different timepoints into the equation below which was derived by Krippendorff et al.[6] S is the H3K4me3 peptide substrate concentration of 0.1 µM and KM is the Michaelis-Menten constant for the substrate of 0.5 µM. XLFit software was used to compute the values of Ki and kinact. […]

Sequence of KDM5B (NanoLuc-KDM5B) (Q9UGL1 whole entry): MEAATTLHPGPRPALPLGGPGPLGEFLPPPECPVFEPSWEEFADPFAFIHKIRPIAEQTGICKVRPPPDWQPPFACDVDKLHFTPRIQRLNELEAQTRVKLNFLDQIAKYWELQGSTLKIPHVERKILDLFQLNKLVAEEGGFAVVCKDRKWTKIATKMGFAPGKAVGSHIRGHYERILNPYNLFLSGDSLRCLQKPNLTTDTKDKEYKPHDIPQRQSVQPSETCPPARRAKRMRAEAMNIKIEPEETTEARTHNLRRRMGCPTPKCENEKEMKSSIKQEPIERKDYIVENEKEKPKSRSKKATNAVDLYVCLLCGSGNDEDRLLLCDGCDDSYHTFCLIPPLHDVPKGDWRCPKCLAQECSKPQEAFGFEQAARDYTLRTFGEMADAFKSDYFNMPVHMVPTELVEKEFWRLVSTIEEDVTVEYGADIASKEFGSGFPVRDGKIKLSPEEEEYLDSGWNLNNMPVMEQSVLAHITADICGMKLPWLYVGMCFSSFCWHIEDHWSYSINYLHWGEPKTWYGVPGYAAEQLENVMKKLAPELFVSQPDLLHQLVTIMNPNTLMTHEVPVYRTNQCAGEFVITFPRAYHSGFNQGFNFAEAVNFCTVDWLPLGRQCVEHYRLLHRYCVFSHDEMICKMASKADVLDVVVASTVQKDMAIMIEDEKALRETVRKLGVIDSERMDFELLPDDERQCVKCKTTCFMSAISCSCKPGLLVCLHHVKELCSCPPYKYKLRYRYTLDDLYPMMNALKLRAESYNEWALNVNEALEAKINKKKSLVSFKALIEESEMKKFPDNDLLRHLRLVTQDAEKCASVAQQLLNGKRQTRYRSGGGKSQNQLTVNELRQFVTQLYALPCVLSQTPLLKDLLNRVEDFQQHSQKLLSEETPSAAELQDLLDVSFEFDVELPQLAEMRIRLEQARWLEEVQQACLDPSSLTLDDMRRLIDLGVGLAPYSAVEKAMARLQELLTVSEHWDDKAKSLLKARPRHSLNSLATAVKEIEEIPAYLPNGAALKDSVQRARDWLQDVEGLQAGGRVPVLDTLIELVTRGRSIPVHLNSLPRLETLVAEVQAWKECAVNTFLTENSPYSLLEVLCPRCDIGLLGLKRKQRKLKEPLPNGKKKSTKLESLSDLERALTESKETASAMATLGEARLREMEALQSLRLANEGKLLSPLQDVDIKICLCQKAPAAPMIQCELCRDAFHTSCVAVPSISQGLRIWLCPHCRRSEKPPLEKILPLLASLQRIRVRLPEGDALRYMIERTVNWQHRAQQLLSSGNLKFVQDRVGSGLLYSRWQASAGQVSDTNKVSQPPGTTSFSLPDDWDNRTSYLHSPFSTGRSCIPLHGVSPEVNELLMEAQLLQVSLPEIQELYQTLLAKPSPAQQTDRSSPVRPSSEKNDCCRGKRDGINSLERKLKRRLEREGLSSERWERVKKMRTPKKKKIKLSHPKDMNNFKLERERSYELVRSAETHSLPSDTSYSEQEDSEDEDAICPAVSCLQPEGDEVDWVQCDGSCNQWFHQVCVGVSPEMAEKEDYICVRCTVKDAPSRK

CC(C)c1c(-c2ccccc2)[nH]c2c(C#N)cnn2c1=O [CPI‐455]
2‐OG shift [1]: 2.0^[c]
IC50 ([1]; read-out: IC50 (2‐OG 1 μM), KDM5B): 3 nM
IC50 [2]: 400 nM
P app [3]: 17.2^[c] 10^−6 cm s^−1

CC(C)c1c(-c2cnn(C(C)(C)C)c2)[nH]c2c(C#N)cnn2c1=O [Compound 1, reference compound]
IC50 [2]: 340 nM
P app [3]: 7.5^[c] 10^−6 cm s^−1
drop in potency with 2-OG concentration ([4]; 2-OG from 0.5 μM up to 1000 μM): 8 fold
IC50 ([4]; IC50 (2‐OG 1 μM), 2-OG 1 μM): 15 nM
IC50 ([4]; IC50 (2‐OG 1 mM), 2-OG 1 mM): 377 nM

C=CC(=O)N1CCN(CCc2cnn(-c3nccc4c(=O)[nH]cnc34)c2)CC1 [Compound 3]
IC50 [2]: > 30000 nM
inhibitor reactive residue in KDM5B (peptide mapping, LCMS/MS) ([5]; digestion of protein–inhibitor adduct): binding specifically to the desired C480
covalent binding to KDM5B by intact MS ([5]; protein 1 μM, compound 10 μM, 2 hours, 37 °C): major peak relating to protein–inhibitor adduct
Papp A→B [6]: < 1.5 ×10⁻⁶ cm/s
IC50 ([4]; IC50 (2‐OG 1 μM), 2-OG 1 μM): 184 nM
Ki [7]: 834 ± 79 nM
k inact/K i [7]: 1400 M⁻¹ s⁻¹
kinact [7]: 0.0012 ± 1.3e-05 s⁻¹
kinact/KI ([7]; Table S1): 1400 ± 20 M⁻¹ s⁻¹
